In patent US20100234310A1, “ESTROGENIC COMPOUNDS AND THEIR METHODS OF USE” (Bionovo, Inc., priority 2009, published 2010):

What was measured:
breast cancer cells = assay: Activity in cancerous cells, in particular breast cancer cells, in vitro; format: cell-based
ER-β = target: T1, ER-β (Homo sapiens, UniProt Q92731); assay: ER-β specific assay: ER-β plasmid co-transfected with TNF-RE-tk-Luc or ERE-tk-Luc; format: cell-based
T1 construct: expressed in transfected cells
Description: Purified compounds were analyzed by LC-MS and NMR and data was compared to data acquired from authentic purchased standards.

T1 sequence (Q92731 whole entry, species assumed): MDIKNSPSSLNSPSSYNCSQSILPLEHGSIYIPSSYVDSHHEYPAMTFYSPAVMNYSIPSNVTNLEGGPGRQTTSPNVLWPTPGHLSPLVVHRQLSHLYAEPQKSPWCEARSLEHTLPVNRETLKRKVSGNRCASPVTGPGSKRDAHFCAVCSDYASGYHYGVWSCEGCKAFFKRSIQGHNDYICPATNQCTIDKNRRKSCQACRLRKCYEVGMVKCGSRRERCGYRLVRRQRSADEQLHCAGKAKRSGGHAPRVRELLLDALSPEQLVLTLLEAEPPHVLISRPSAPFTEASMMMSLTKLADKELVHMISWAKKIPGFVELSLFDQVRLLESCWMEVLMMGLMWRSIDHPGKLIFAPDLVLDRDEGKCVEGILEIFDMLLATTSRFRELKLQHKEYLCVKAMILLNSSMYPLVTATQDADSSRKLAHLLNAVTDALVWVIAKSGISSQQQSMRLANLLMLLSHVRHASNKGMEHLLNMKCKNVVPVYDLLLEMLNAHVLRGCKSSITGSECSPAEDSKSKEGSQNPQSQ

SMILES | induction of apoptosis (breast cancer cells) | induction of cell death (breast cancer cells) | induction of mitochondrial superoxide (breast cancer cells) | estrogenic activity (ER-β-specific) (ER-β) | generation of reactive oxygen species (breast cancer cells) | generation/induction of superoxide (breast cancer cells)
O=c1cc(-c2ccc(O)cc2)oc2cc(O)cc(O)c12 [Apigenin] | active | active | active |  |  | 
O=c1cc(-c2ccc(O)c(O)c2)oc2cc(O)cc(O)c12 [Luteolin] | active | active | active | estrogenic activity | active | active
O=C1CC(c2ccc(O)cc2)Oc2cc(O)cc(O)c21 (stereo not shown) [Narigenin] |  |  |  | estrogenic activity |  | 
O=c1c(O[C@@H]2O[C@H](CO)[C@@H](O)[C@H](O)[C@H]2O)c(-c2ccc(O)c(O)c2)oc2cc(O)cc(O)c12 [Quercetin-3-O-β-glucopyranoside] |  |  |  | estrogenic activity |  | 
O=c1c(O)c(-c2ccc(O)c(O)c2)oc2cc(O)cc(O)c12 [Quercetin] |  |  |  | estrogenic activity |  | 
C[C@@H]1O[C@@H](Oc2c(-c3ccc(O)c(O)c3)oc3cc(O)cc(O)c3c2=O)[C@H](O)[C@H](O)[C@H]1O [Quercetrin] |  |  |  | estrogenic activity |  | 
